Experimental data from patent US9839618B2, “Compositions and methods relating to proliferative diseases” (The Penn State Research Foundation, priority 2010, dated 2017).

What was measured:
UACC 903 melanoma cells = experiment: Natural product library NPL-480 primary screen, MTS viability; type: cell-based; conditions: Homo sapiens, 5 μmol/L, 24 hours, MTS assay, read-out: decrease of cell viability
Description: Natural product library NPL-480 (from TimTec Inc., Newark, Del.) consisting of 480 compounds derived from plants, animal, bacteria and fungus is screened using MTS assay to identify agents reducing cell growth of melanoma cells. Compounds of the NPL-480 library that are supplied as powders or oils are dissolved in DMSO to a stock concentration of 10 mM and stored at −20° C. DMSO concentrations in the reaction mixture are controlled to not exceed 0.5% (vol/vol). 5×10^3 UACC 903 melanoma cells are plated in 96 well plates for 24 hours followed by treatment with each compound at 5 μmol/L for 24 hours. Viability is measured using the MTS assay as described in Sharma, A. et al., Clin Cancer Res, 2009, 15:1674-85; and Madhunapantula, S. V. et al., Mol Cancer Ther, 2008, 7:1297-308. This primary screen identified 12 compounds effective to decrease melanoma cells viability by ˜50% or more.

[1] = tested on: GFP expressing UACC 903 melanoma cells in skin reconstructs; experiment: Topical treatment of melanoma tumors in skin reconstructs; type: cell-based, human; conditions: topical 2.5, 5 and 10 uM for 8 days
Description: In this example, the effect of leelamine on melanoma tumors developing in skin reconstructs is tested by topical application. Skin reconstructs are generated by mixing GFP expressing UACC 903 melanoma cells with human normal fibroblasts (FF2441) and keratinocytes (HFK) followed by growing in a 37° C. incubator for 7 days. Beginning from day 8, completely developed skins containing melanoma tumors are treated with increasing concentrations of Leelamine (2.5, 5 and 10 uM in 200 uL PBS) or PBS vehicle alone for an additional 8 more days. The sizes of developing tumors, in terms of area occupied by GFP are measured. […] Also shown in FIG. 22 are images of control and treated cells.

[2] = tested on: UACC 903 xenograft tumors; experiment: Size and time matched tumors (Ki-67, TUNEL, CD31, Western blot); type: in vivo, mice
Excerpt: Rates of cell proliferation (using Ki-67), apoptosis (using terminal deoxynucleotidyl transferase-mediated dUTP nick-end labeling) and tumor angiogenesis (using CD31 staining) are quantified in time and size matched tumors treated with leelamine compared with DMSO treated control animals to identify the underlying mechanism by which leelamine inhibits melanoma tumor development using an established method described in Sharma, A. et al., Clin Cancer Res, 2009, 15:1674-85; Madhunapantula, S. V. et al., Mol Cancer Ther, 2008, 7:1297-308; Sharma, A. et al., Cancer Res, 2006, 66:8200-9; and Stahl, J. M. et al., Cancer Res, 2003, 63:2881-90. Size and time matched tumors at each time are compared to identify the first statistically quantifiable difference(s) affected by leelamine treatment in the rates of processes regulating tumor development i.e. cell proliferation, apoptosis or vascular development. […] Cell proliferation is measured using mouse anti-human Ki-67 staining from Pharmigen (San Diego, Calif.). Apoptosis rates are scored using “terminal deoxynucleotidyl transferase-mediated dUTP nick end labeling (TUNEL)” TMR Red Apoptosis kit from Roche (Mannheim, Germany). […] The number of Ki-67 and TUNEL positive cells is quantified as the percentage of total cells in tumors using the IP Lab imaging software program. For CD31, the area occupied by blood vessels is measured. […]

[3] = tested on: UACC 903 and 1205 Lu melanoma cells; experiment: Cell cycle analysis (propidium iodide, FACScan); type: cell-based, human; conditions: 2 or 3 μmol/L, 24 h
Description: Analysis of the effects of leelamine on cell cycle is performed by growing UACC 903 and 1205 Lu melanoma cells in 100-mm culture dishes followed by treatment with 2 or 3 μmol/L of leelamine for 24 h. Total floating and adherent cells are collected following trypsinization and stained using 1 mL propidium iodide solution containing 100 μg/mL propidium iodide; (Sigma, St Louis, Mo.), 20 μg/mL Ribonuclease A (Roche diagnostics, Indianapolis, Ind.) and 3 μg/mL Triton X-100 dissolved in 0.1% (W/V) sodium citrate for 30 m at 4° C. Stained cells are analyzed using the FACScan analyzer (Becton Dickinson, Franklin lakes, NJ) and data processed utilizing ModFit LT software (Verity Software House, Topsham, Me.) as described in Sharma, A. et al., Clin Cancer Res, 2009, 15:1674-85; and Madhunapantula, S. V. et al., Mol Cancer Ther, 2008, 7:1297-308.

CC(C)c1ccc2c(c1)CCC1[C@](C)(CN)CCC[C@]21C (stereo partly drawn) [Leelamine, [(1R,4aS)-1,4a-dimethyl-7-(propan-2-yl)-1,2,3,4,4a,9,10,10a-octahydrophenanthren-1-yl]methanamine] was tested, and the cytotoxicity at 5 µM (UACC 903 melanoma cells) was about 95%, the “melanoma tumor growth in skin reconstructs (GFP area)” value [1] was “inhibits melanoma tumor growth” and the “reduction in proliferating cells (Ki-67)” value ([2]; day 11, i.p. 7.5 mg/kg daily from day 6, vs DMSO) was 50%. For the same molecule, the “active pAkt in tumor lysates (Western blot)” value ([2]; days 11, 13 and 15, treated from day 6) was “decreased active pAkt” and the cell cycle distribution [3] was “increased percentage of sub-G0-G1 and G0/G1 cell populations, with a corresponding decrease in S-phase population”.
